Reference: ChEMBL document CHEMBL1201862, “PubChem BioAssay data set” (2004)
The source made the active and inactive calls.

Tests used:
Caspase-7 = Caspase-7 (Homo sapiens, UniProt P55210); assay: human caspase-7 inhibitors, dose response, selectivity assay for caspase-6 inhibitor project, biochemical, DEVD-R110 fluorescence, cherry-pick (AID 743295)
[1] = molecular target: Mitochondrial peptide methionine sulfoxide reductase (Bos taurus, UniProt P54149); assay: Absorbance-based biochemical high throughput dose response assay for activators of Methionine sulfoxide reductase A (MsrA).; format: functional
[2] = molecular target: T1, Corticotropin-releasing factor receptor 2/Corticotropin-releasing factor-binding protein (Homo sapiens, UniProt P24387+Q13324); assay: Dose Response confirmation of uHTS hits for small molecule antagonists of the CRF-binding protein and CRF-R2 receptor complex.; format: functional; conditions: read-out: IC50_Mean
T1 sequence (Q13324 whole entry): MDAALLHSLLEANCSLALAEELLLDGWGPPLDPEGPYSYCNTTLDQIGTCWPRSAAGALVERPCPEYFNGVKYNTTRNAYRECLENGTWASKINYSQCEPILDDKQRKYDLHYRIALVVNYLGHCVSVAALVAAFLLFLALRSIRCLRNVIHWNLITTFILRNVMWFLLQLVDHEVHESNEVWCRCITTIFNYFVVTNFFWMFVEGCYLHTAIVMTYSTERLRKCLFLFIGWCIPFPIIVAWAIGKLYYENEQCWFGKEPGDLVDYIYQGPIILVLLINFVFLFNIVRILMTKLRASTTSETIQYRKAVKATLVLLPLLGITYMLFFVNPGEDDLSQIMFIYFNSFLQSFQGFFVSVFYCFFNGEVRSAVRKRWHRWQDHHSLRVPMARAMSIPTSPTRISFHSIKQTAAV
T1 sequence (P24387 whole entry): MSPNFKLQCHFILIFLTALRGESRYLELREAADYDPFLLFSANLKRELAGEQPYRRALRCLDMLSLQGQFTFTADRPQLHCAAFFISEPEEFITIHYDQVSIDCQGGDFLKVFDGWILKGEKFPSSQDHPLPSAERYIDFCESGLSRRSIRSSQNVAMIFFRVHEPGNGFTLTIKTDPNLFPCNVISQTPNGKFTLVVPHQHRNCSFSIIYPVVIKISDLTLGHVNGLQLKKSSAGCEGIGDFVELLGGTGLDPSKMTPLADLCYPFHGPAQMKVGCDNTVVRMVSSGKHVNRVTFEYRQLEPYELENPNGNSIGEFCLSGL

Caspase-9 = Caspase-9 (Homo sapiens, UniProt P55211); assay: caspase-9 enzyme inhibition, dose response, selectivity assay for caspase-6 inhibitor project, biochemical, fluorescence, plate reader, cherry-picked samples (AID 743293)
[3] = molecular target: Heat shock protein HSP 90-alpha (Homo sapiens, UniProt P07900); format: functional, organism-based
[4] = molecular target: Cell division cycle 7-related protein kinase (Homo sapiens, UniProt O00311); format: functional;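 further: value obtained from a kinome-wide kinase panel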
[5] = molecular target: Ribosomal protein S6 kinase beta-1 (Homo sapiens, UniProt P23443); format: functional;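 further: measured as one member of a kinome-wide profiling panel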
[6] = molecular target: RAC-alpha serine/threonine-protein kinase (Homo sapiens, UniProt P31749); format: functional;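 further: AKT1 affinity measured as one member of a kinome-wide kinase profiling panel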
[7] = molecular target: Macrophage colony-stimulating factor 1 receptor (Homo sapiens, UniProt P07333); format: functional;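 further: value comes from the Navigating the Kinome screening panel, CSF1R member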
[8] = molecular target: Tyrosine-protein kinase Fer (Homo sapiens, UniProt P16591); format: functional;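 further: FER tested as one member of a kinome panel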
[9] = molecular target: Tyrosine-protein kinase Srms (Homo sapiens, UniProt Q9H3Y6); format: functional;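 further: SRMS measured as one member of a kinome-wide kinase profiling panel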
[10] = molecular target: Serine/threonine-protein kinase Chk2 (Homo sapiens, UniProt O96017); format: functional;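 further: CHEK2 entry within a kinome-wide screening panel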
[11] = molecular target: Dual specificity tyrosine-phosphorylation-regulated kinase 1A (Homo sapiens, UniProt Q13627); format: functional;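 further: measured against DYRK1A as one member of a broad kinome profiling panel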
Cytochrome P450 2C9 = Cytochrome P450 2C9 (Homo sapiens, UniProt P11712)
[12] = molecular target: Interleukin-1 receptor-associated kinase 4 (Homo sapiens, UniProt Q9NWZ3); format: functional
[13] = molecular target: Vascular endothelial growth factor receptor 2 (Homo sapiens, UniProt P35968); format: functional
[14] = molecular target: Non-receptor tyrosine-protein kinase TYK2 (Homo sapiens, UniProt P29597); format: functional
[15] = molecular target: Tyrosine-protein kinase Blk (Homo sapiens, UniProt P51451); format: functional;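 further: obtained as one member of a kinome-wide kinase assay panel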
[16] = molecular target: MAP kinase-activated protein kinase 2 (Homo sapiens, UniProt P49137); format: functional;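 further: measured as one member of a kinome-wide kinase panel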
[17] = molecular target: Serine/threonine-protein kinase pim-2 (Homo sapiens, UniProt Q9P1W9); format: functional;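 further: value comes from a broad kinase panel profiling study in which PIM2 was one of the panel members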
[18] = molecular target: RAC-gamma serine/threonine-protein kinase (Homo sapiens, UniProt Q9Y243); format: functional
[19] = molecular target: Dual specificity protein kinase CLK2 (Homo sapiens, UniProt P49760); format: functional
[20] = molecular target: Serine/threonine-protein kinase BRSK1 (Homo sapiens, UniProt Q8TDC3); format: functional;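 further: measured within a kinome-wide kinase panel, with the target listed as KIAA1811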
[21] = molecular target: Dual specificity tyrosine-phosphorylation-regulated kinase 3 (Homo sapiens, UniProt O43781); format: functional;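 further: measured as one member of a broad kinase panel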
Chain of Dual specificity tyrosine-phosphorylation-regulated kinase 3 (O43781 whole entry): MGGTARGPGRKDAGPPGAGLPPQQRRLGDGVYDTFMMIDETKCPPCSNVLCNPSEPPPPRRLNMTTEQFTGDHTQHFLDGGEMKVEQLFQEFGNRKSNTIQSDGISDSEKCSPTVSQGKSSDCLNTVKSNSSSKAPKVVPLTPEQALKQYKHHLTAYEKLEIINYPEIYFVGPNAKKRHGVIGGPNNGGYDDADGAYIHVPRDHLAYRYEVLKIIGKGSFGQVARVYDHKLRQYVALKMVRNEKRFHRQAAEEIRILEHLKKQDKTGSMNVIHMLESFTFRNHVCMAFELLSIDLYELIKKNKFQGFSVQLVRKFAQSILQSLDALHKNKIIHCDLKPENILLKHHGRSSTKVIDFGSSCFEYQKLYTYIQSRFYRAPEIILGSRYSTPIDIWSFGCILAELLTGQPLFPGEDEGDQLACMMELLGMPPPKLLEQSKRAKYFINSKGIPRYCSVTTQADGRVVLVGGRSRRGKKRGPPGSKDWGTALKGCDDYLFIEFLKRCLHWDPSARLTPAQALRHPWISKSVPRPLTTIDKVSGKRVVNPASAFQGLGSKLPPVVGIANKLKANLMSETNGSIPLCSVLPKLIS

Chain of Macrophage colony-stimulating factor 1 receptor (P07333 whole entry): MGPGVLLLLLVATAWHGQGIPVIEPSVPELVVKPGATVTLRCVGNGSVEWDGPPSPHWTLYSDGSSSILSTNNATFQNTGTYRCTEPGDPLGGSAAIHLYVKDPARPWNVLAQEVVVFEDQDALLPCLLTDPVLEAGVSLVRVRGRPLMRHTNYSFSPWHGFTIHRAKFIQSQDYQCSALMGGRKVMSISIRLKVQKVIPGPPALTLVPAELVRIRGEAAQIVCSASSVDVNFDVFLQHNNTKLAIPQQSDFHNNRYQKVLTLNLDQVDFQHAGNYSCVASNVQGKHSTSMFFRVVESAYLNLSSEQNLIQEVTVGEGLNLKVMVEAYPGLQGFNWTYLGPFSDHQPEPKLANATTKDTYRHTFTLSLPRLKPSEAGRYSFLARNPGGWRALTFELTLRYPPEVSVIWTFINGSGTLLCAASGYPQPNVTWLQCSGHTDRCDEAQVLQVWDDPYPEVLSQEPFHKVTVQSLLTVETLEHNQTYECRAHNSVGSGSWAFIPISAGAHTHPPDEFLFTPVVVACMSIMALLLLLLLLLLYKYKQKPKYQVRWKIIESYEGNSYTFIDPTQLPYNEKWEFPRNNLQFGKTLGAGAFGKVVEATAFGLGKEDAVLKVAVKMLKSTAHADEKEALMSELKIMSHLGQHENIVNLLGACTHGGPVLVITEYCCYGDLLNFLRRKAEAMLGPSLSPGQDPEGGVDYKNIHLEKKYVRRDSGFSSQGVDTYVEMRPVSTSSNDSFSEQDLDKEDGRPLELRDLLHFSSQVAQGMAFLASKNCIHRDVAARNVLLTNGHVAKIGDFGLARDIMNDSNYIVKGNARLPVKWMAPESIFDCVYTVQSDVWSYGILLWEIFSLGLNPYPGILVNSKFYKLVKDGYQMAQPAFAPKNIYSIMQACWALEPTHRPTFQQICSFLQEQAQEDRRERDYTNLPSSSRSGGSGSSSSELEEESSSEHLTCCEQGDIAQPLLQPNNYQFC
Chain of Tyrosine-protein kinase Blk (P51451 whole entry): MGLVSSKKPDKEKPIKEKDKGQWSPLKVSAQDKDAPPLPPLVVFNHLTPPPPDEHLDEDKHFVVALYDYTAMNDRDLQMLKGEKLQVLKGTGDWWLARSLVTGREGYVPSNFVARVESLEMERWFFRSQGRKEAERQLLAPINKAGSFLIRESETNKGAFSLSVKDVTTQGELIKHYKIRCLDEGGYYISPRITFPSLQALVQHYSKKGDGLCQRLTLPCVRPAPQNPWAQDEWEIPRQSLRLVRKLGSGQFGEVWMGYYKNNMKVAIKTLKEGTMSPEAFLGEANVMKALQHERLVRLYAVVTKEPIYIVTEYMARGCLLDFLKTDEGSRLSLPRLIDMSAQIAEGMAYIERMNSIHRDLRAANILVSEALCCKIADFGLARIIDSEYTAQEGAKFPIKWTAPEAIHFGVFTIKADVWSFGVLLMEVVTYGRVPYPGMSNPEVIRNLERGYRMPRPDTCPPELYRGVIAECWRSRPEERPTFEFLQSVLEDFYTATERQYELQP
Chain of Serine/threonine-protein kinase Chk2 (O96017 whole entry): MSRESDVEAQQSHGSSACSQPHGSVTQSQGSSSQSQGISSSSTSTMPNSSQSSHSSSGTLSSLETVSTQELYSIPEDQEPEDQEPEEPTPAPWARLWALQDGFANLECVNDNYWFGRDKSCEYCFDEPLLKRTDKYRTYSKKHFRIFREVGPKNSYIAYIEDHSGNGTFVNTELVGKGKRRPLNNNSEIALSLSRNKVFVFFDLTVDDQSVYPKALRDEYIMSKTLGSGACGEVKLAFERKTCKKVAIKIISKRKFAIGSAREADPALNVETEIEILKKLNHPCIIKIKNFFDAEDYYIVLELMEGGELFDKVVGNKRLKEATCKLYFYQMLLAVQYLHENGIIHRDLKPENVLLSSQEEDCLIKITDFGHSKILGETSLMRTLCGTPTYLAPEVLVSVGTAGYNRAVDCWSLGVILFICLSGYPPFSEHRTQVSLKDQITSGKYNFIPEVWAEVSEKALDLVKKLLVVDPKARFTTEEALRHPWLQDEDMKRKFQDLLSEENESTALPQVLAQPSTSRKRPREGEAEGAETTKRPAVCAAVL
Chain of Caspase-9 (P55211 1-315 limits assumed): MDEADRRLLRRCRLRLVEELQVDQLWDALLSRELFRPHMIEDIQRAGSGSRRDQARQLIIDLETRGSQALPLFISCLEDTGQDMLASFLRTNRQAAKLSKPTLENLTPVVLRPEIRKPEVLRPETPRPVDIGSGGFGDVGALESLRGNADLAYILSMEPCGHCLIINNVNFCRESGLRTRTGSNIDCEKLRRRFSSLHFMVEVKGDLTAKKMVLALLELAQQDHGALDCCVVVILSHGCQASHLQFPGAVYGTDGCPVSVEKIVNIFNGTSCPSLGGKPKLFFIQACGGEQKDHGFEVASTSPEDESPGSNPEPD
Chain of Caspase-9 (P55211 331-416 limits assumed): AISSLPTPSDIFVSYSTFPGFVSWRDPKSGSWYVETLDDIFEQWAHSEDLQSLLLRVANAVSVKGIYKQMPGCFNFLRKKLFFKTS
Chain of Serine/threonine-protein kinase pim-2 (Q9P1W9 whole entry): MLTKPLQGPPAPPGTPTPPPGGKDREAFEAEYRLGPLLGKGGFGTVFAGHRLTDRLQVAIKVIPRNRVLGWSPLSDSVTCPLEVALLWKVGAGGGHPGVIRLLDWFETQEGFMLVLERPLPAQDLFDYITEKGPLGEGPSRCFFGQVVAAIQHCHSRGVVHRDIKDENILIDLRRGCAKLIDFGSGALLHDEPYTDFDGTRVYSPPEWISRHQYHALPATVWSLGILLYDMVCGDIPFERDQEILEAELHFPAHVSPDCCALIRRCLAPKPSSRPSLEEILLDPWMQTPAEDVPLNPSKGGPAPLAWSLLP
Chain of Serine/threonine-protein kinase BRSK1 (Q8TDC3 whole entry): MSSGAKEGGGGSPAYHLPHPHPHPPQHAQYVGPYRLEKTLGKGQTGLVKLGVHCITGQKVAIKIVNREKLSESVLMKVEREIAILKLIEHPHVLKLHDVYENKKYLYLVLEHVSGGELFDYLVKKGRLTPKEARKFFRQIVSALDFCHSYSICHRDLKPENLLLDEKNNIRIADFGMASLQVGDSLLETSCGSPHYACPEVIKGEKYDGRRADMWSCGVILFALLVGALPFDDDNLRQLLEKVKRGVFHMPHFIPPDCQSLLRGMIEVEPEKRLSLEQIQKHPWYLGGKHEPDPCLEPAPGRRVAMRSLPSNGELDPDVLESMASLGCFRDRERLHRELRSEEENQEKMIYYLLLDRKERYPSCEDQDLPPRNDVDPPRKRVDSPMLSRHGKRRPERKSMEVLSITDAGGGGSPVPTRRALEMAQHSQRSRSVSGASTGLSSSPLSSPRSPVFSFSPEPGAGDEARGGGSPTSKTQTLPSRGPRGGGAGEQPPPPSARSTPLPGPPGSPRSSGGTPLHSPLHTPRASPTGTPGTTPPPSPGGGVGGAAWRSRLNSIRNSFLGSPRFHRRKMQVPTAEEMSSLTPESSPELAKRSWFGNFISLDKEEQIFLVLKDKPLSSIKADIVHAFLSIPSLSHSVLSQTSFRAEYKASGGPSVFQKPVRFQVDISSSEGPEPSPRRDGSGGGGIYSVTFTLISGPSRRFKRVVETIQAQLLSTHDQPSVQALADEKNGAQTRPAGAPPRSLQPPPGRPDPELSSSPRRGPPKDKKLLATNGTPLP
Chain of Cytochrome P450 2C9 (P11712 whole entry): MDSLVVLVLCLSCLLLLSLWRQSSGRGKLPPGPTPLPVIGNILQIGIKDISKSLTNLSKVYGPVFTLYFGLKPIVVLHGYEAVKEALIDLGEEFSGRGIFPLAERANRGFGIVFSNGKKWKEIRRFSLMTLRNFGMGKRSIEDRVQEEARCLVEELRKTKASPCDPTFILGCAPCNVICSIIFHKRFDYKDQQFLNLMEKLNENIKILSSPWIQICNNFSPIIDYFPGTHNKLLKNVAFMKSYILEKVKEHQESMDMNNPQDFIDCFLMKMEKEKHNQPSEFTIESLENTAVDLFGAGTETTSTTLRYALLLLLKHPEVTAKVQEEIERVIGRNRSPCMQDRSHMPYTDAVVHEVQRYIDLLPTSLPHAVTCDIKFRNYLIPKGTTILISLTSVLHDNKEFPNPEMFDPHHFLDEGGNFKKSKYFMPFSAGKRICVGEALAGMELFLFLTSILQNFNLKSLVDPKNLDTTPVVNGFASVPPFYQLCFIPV
Chain of Caspase-7 (P55210 24-198 limits assumed): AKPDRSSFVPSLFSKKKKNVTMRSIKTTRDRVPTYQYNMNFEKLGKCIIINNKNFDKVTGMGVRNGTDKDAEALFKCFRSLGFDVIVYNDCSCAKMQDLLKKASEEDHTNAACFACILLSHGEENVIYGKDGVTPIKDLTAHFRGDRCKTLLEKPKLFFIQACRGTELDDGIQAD
Chain of Caspase-7 (P55210 207-303 limits assumed): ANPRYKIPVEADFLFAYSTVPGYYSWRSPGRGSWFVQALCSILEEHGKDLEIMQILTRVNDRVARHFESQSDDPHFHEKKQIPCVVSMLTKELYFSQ

O=C(COC(=O)c1ccc([N+](=O)[O-])s1)Nc1cccc(S(=O)(=O)/N=C2/CCCCCN2)c1
inactive: EC50 [1] 70400 nM | IC50 [2] > 47100 nM
active: AC50 (Caspase-7) 14600 nM | AC50 (Caspase-9) 30200 nM

COc1ccc(C(C[N+](=O)[O-])c2c(C)[nH]n(-c3ccccc3)c2=O)cc1 (centres undefined)
active: AC50 [3] 7910 nM

Oc1c2ccccc2c2c3c(cccc13)N=N2 [SP-600125]
inactive: Ki [6] > 7940 nM | Ki [9] > 1580 nM | Ki [16] > 7940 nM | Ki [18] > 10000 nM
inconclusive: AC50 (Cytochrome P450 2C9)
active: Ki [4] 1000 nM | Ki [5] 126 nM | Ki [7] 126 nM | Ki [8] 50.1 nM | Ki [10] 501 nM | Ki [11] 126 nM | Ki [12] 158 nM | Ki [13] 631 nM | Ki [14] 1260 nM | Ki [15] 200 nM | Ki [17] 316 nM | Ki [19] 631 nM | Ki [20] 794 nM | Ki [21] 316 nM
